Source: patent US6737383B1, “Herbicidal oxadiazolidines” (priority 1999, dated 2004)

Assays:
[1] = tested on: Abutilon theophrasti (ABUTH); assay: Test F preemergence, alone and in mixture with rimsulfuron, ABUTH; type: in vivo; conditions: 21 days after treatment, 0-100 scale
Method in brief: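 Greenhouse pot plants treated preemergence with compound at 70 and 105 g ai/ha, rimsulfuron at 8.8 and 17.5 g ai/ha, or mixtures; 27° C day/21° C night, 14 hour photoperiod. Injury scored at 21 days after treatment against solvent-sprayed controls; expected additive effect of mixtures calculated by Colby's equation.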

Setaria faberii (SETFA) = assay: Test F preemergence, alone and in mixture with rimsulfuron, SETFA; type: in vivo; conditions: 21 days after treatment, 0-100 scale
Experimental: Abutilon theophrasti (ABUTH), Chenopodium album (CHEAL), Amaranthus rudis (AMATA), Setaria faberii (SETFA), Panicum dichotomiflorum (PANDI), and Digitaria sanguinalis (DIGSA) were grown from seed in pots of an artificial potting mixture in a greenhouse. Compounds of the present invention were applied at 70 and 105 g ai/ha preemergence. Rimsulfuron was applied at 8.8 and 17.5 g ai/ha. Mixtures of the compounds of the present invention and rimsulfuron were also applied.
(§1) Following application, the plants were maintained by watering as needed. A fertilizer solution of Peter's 20-20-20 (10 pounds/5 gallons of water) plus Sprint 330, a Iron Chelate micronutrient, (113.5 grams/5 gallons of water) was injected into the water with an Anderson fertilizer injection system to provide approximately 219 ppm of nitrogen with each watering. Artificial lighting was used to supplement natural light to produce a 14 hour photoperiod and: an additional one hour light period was used between 1:00 am to 2:00 am for a night interruption. Greenhouse temperatures were targeted for 27° C. in the day and 21° C. at night. At 21 days after treatment, all plants were evaluated for injury as compared to control plants that were sprayed only with non-phytotoxic solvent.
Colby's equation was used to calculate the expected additive herbicidal effect of the mixtures of Compound 21 and the mixture partners listed above. […]

certain weeds = assay: Test F overall statement on synergism with rimsulfuron (Colby's equation); type: in vivo; conditions: combinations with rimsulfuron, preemergence
Experimental: as §1, with “Abutilon theophrasti (ABUTH), Chenopodium album (CHEAL), Amaranthus rudis (AMATA), Setaria […]), Panicum dichotomiflorum (PANDI), and Digitaria sanguinalis (DIGSA) were grown from seed in pots of an artificial potting mixture in a greenhouse. Compounds of the present invention were applied at 70 and 105 g ai/ha preemergence. Rimsulfuron was applied at 8.8 and 17.5 g ai/ha. Mixtures of the compounds of the present invention and rimsulfuron were also applied. Following” for “Following”, “solvent. […] Colby's equation was used to calculate the expected additive herbicidal effect of the mixtures of Compound 21 and the mixture partners listed above. […]” for “solvent.”

maize hybrid P33G26 = assay: Test G maize injury with safener-treated seed; conditions: for Mean plant response rating, maize: 28 days after application
Method in brief: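 Maize hybrid P33G26 seed, treated with dichlormid, fenchlorazole-ethyl or naphthalic anhydride or left untreated, was sown in soil pots, then sprayed pre-emergence with several compound rates at 310 L/ha. Plants grew in a greenhouse (14 h day, about 27/24 °C day/night), with 4–5 replicates. Injury was scored visually against untreated controls 28 days after application.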

common groundsel = assay: Test D common groundsel; type: in vivo, Senecio vulgaris; conditions: Postemergence, 0 to 100 scale
goosegrass = assay: Test D goosegrass; type: in vivo, Eleusine indica; conditions: Postemergence, 0 to 100 scale
large crabgrass = assay: Test D large crabgrass; type: in vivo, Digitaria sanguinalis; conditions: Postemergence, 0 to 100 scale
purple nutsedge = assay: Test D purple nutsedge; type: in vivo, Cyperus rotundus; conditions: Postemergence, 0 to 100 scale
sandbur = assay: Test D sandbur; type: in vivo, Cenchrus echinatus; conditions: Postemergence, 0 to 100 scale
tall mallow = assay: Test D tall mallow; type: in vivo, Malva sylvestris; conditions: Postemergence, 0 to 100 scale
Green foxtail = assay: Test D green foxtail; type: in vivo; conditions: Rate 250 g/ha; Postemergence; 0 to 100 scale
[2] = Alone: Cmpd. rate 70, Rimsulfuron 0
[3] = Alone: Cmpd. rate 105, Rimsulfuron 0
[4] = Rate 16 g/ha, 0 no injury, 100 complete control
[5] = Rate 32 g/ha, 0 no injury, 100 complete control
[6] = Rate 64 g/ha, 0 no injury, 100 complete control
[7] = Rate 125 g/ha, 0 no injury, 100 complete control

CC(C)N(C(=O)n1oc(=O)n(C(C)C)c1=O)c1ccc(F)cc1 [Compound 131]
ABUTH Observed [1, 2]: 40% | ABUTH Observed [1, 3]: 60% | SETFA Observed (Setaria faberii (SETFA); [2]): 35% | SETFA Observed (Setaria faberii (SETFA); [3]): 65% | Weed control of combination with rimsulfuron compared with expectation from Colby's equation (certain weeds): better control of certain weeds than expected | Mean plant response rating, maize (maize hybrid P33G26; Safener Dichlormid (seed treatment), Rate 70 g ai/ha): 3 percent control | Mean plant response rating, maize (maize hybrid P33G26; Safener Dichlormid (seed treatment), Rate 140 g ai/ha): 3 percent control | Mean plant response rating, maize (maize hybrid P33G26; Safener Dichlormid (seed treatment), Rate 280 g ai/ha): 3 percent control | Mean plant response rating, maize (maize hybrid P33G26; Safener Dichlormid (seed treatment), Rate 560 g ai/ha): 40 percent control | Mean plant response rating, maize (maize hybrid P33G26; Safener Fenchlorazole-ethyl (seed treatment), Rate 70 g ai/ha): 85 percent control | Mean plant response rating, maize (maize hybrid P33G26; Safener Fenchlorazole-ethyl (seed treatment), Rate 140 g ai/ha): 91 percent control | Mean plant response rating, maize (maize hybrid P33G26; Safener Fenchlorazole-ethyl (seed treatment), Rate 280 g ai/ha): 92 percent control | Mean plant response rating, maize (maize hybrid P33G26; Safener Fenchlorazole-ethyl (seed treatment), Rate 560 g ai/ha): 96 percent control | Mean plant response rating, maize (maize hybrid P33G26; Safener None, Rate 70 g ai/ha): 80 percent control | Mean plant response rating, maize (maize hybrid P33G26; Safener None, Rate 140 g ai/ha): 88 percent control | Mean plant response rating, maize (maize hybrid P33G26; Safener None, Rate 280 g ai/ha): 91 percent control | Mean plant response rating, maize (maize hybrid P33G26; Safener None, Rate 560 g ai/ha): 95 percent control | Mean plant response rating, maize (maize hybrid P33G26; Safener naphthalic anhydride (seed treatment), Rate 140 g ai/ha): 0 percent control | Injury to maize (maize hybrid P33G26; absence of any safener, rates ranging from 70 to 560 g/ha): severely injurious to maize | Plant response rating, Com. groundsel (common groundsel; [4]): 90 | Plant response rating, Com. groundsel (common groundsel; [5]): 100 | Plant response rating, Com. groundsel (common groundsel; [6]): 100 | Plant response rating, Com. groundsel (common groundsel; [7]): 100 | Plant response rating, Com. groundsel (common groundsel; Rate 250 g/ha): 100 | Plant response rating, Goosegrass (goosegrass; [4]): 90 | Plant response rating, Goosegrass (goosegrass; [5]): 100 | Plant response rating, Goosegrass (goosegrass; [6]): 100 | Plant response rating, Goosegrass (goosegrass; [7]): 100 | Plant response rating, Goosegrass (goosegrass; Rate 250 g/ha): 100 | Plant response rating Large crabgrass (large crabgrass; [4]): 90 | Plant response rating Large crabgrass (large crabgrass; [5]): 100 | Plant response rating Large crabgrass (large crabgrass; [6]): 100 | Plant response rating Large crabgrass (large crabgrass; [7]): 100 | Plant response rating Large crabgrass (large crabgrass; Rate 250 g/ha): 100 | Plant response rating, Purple nutsedge (purple nutsedge; [4]): 0 | Plant response rating, Purple nutsedge (purple nutsedge; [5]): 0 | Purple nutsedge plant response rating (purple nutsedge; [6]): 0 | Purple nutsedge plant response rating (purple nutsedge; [7]): 30 | Plant response rating, Purple nutsedge (purple nutsedge; Rate 250 g/ha): 100 | Plant response rating, Sandbur (sandbur; [4]): 0 | Plant response rating, Sandbur (sandbur; [5]): 0 | Sandbur plant response rating (sandbur; [6]): 100 | Sandbur plant response rating (sandbur; [7]): 100 | Plant response rating, Sandbur (sandbur; Rate 250 g/ha): 100 | Plant response rating, Tall Mallow (tall mallow; [4]): 0 | Plant response rating, Tall Mallow (tall mallow; [5]): 30 | Tall Mallow plant response rating (tall mallow; [6]): 40 | Tall Mallow plant response rating (tall mallow; [7]): 90 | Plant response rating, Tall Mallow (tall mallow; Rate 250 g/ha): 100 | Plant response rating, Green foxtail (Green foxtail): 100
